# Columns and labels:
# [1] = Precipitation of crosslinker from aqueous monomer solution; type: physicochemical; conditions: based on total metal acrylate salt; aqueous monomer solution 20-40% solids, especially if shaken
# albino rats [2] = assay: Acute toxicity (LD50) of grout monomers; type: in vivo; conditions: from LD50 of MBA vs acrylamide
# [3] = cited from earlier work
# albino rats [4] = conditions: cited from earlier work
# [5] = 4 to 25% calcium acrylate based on dry soil weight, redox catalyst; U.S. Pat. No. 2,651,619; cited from earlier work
# [6] = Gel time of grout mixtures after mixing components A and B; type: physicochemical; conditions: used instead of MgA in the monomer composition
# Procedure: To 50 parts of each of the stock solutions a, b, c, d, and e, there is added 1.0 part of TEA (95% in water) and to another 50 parts of each of the stock solutions, there is added 2.0 parts of TEA (95% in water). The resulting ten solutions containing TEA, the latter five having twice as much TEA as the first five, are examples of component A that can be mixed with an approximately equal volume of initiator component B which in its simplest make-up consists of a solution in water of ammonium persulfate (AP).
# The component B that is used with each of the first five of the TEA/monomer component A solutions is a solution of 2% AP in water, approximately 50 parts of the 2% AP solution being mixed, as at the discharge header of a packer, with 50 parts of the respective component A solution. These first five A and B mixtures when used in the field at about 20° (68° F.) have gel times of about 30 seconds. The component B made up for use with the last group of five TEA/monomer components A is a solution of 4% AP in water. When the latter AP solution is forced at approximately a rate of 50 parts for each 50 parts of a respective one of the last five TEA/monomer component A solutions through separate feed lines to the packer at field temperatures of about 10° (50° F.), the grout mixtures A and B give approximately 30-second gel times.
smiles,measurement,setting,value
"C=CC(=O)NCNC(=O)C=C [MBA, N,N'-methylenebisacrylamide]",amount of crosslinker above which it tends to precipitate,[1],about 4 % by weight
same,monomer toxicity (factor relative to acrylamide),albino rats [2],1/2
same,neurotoxicity,"[3]; at dose schedules and conditions employed (MRI Project No. 4308-N, page 287)",not neurotoxic
same,LD50,albino rats [4],390 mg/kg
C=CC(N)=O [acrylamide],neurotoxicity (general statement),[3]; in vivo,a neurotoxic chemical
"C=CC(=O)O [calcium acrylate (CaA), calcium acrylate]",compressive strength of stabilized soil,[5],up to 600 psi
same,gel time (in words),[6],long gel time
